Results as given in ChEMBL document CHEMBL6134887, “Linker and Head-Group Exploration of Anti-MRSA Triaromatic Pleuromutilins” (J Med Chem, 2025).
Converted amounts (≈) assume the structure as drawn.

Tests used:
[1] = tested on: Staphylococcus aureus; assay: Antibacterial activity against methicillin resistant Staphylococcus aureus USA300 FPR3757 assessed as inhibition of bacterial growth incubated for 20 to 24 hrs by microbroth serial dilution method; format: functional; details: time 20-24 hrs, read-out: MIC100
[2] = Metabolic stability in mouse liver assessed as intrinsic clearance at 1 uM measured up to 60 mins by LC-MS/MS analysis; format: ADME, tissue-based; details: read-out: CLH
[3] = Metabolic stability in mouse liver microsomes assessed as half-life at 1 uM measured up to 60 mins by LC-MS/MS analysis; format: ADME, Microsome
[4] = Metabolic stability in human liver assessed as intrinsic clearance at 1 uM measured up to 30 mins by LC-MS/MS analysis; format: ADME, tissue-based; details: read-out: CLH
[5] = Metabolic stability in human liver microsomes assessed as half-life at 1 uM measured up to 30 mins by LC-MS/MS analysis; format: ADME, Microsome

Structure (SMILES)	MIC [1]	CLint scaled at 1 µM [2]	half-life at 1 µM [3]	CLint scaled at 1 µM [4]	half-life at 1 µM [5]
C=C[C@]1(C)C[C@@H](OC(=O)Cn2cc(-c3ccc(CNc4cc(N)ncn4)nc3)nn2)[C@]2(C)[C@H](C)CC[C@]3(CCC(=O)[C@H]32)[C@@H](C)[C@@H]1O	0.06 µg/mL (≈ 0.0954 µM)				
C=C[C@]1(C)C[C@@H](OC(=O)Cn2cc(-c3cccc(C(=O)Nc4ccccc4)c3)nn2)[C@]2(C)[C@H](C)CC[C@]3(CCC(=O)[C@H]32)[C@@H](C)[C@@H]1O	0.25 µg/mL (≈ 0.4 µM)				
C=C[C@]1(C)C[C@@H](OC(=O)Cn2cc(-c3ccc(Cn4cnc5c(N)ncnc54)c(O)c3)nn2)[C@]2(C)[C@H](C)CC[C@]3(CCC(=O)[C@H]32)[C@@H](C)[C@@H]1O		586 L/h/kg	0.56 min		
C=C[C@]1(C)C[C@@H](OC(=O)Cn2cc(-c3ccc(NC(=O)c4ccc(OC)cc4)cc3)nn2)[C@]2(C)[C@H](C)CC[C@]3(CCC(=O)[C@H]32)[C@@H](C)[C@@H]1O	8 µg/mL (≈ 12.2 µM)				
C=C[C@]1(C)C[C@@H](OC(=O)Cn2cc(-c3ccc(Cn4cnc(CO)c4)nc3)nn2)[C@]2(C)[C@H](C)CC[C@]3(CCC(=O)[C@H]32)[C@@H](C)[C@@H]1O	2 µg/mL (≈ 3.24 µM)				
C=C[C@]1(C)C[C@@H](OC(=O)Cn2cc(-c3ccc(CNc4cc(N)ncn4)cc3)nn2)[C@]2(C)[C@H](C)CC[C@]3(CCC(=O)[C@H]32)[C@@H](C)[C@@H]1O	0.03 µg/mL (≈ 0.0478 µM)	> 600 L/h/kg	0.55 min	289 L/h/kg	1.3 min
C=C[C@]1(C)C[C@@H](OC(=O)Cn2cc(-c3ccc(Cn4ccc(N)nc4=O)nc3)nn2)[C@]2(C)[C@H](C)CC[C@]3(CCC(=O)[C@H]32)[C@@H](C)[C@@H]1O	8 µg/mL (≈ 12.7 µM)				
C=C[C@]1(C)C[C@@H](OC(=O)Cn2cc(-c3cccc(NC(=O)c4ccc(OC)nc4)c3)nn2)[C@]2(C)[C@H](C)CC[C@]3(CCC(=O)[C@H]32)[C@@H](C)[C@@H]1O	0.12 µg/mL (≈ 0.183 µM)				
C=C[C@]1(C)C[C@@H](OC(=O)Cn2cc(-c3cncc(C(=O)Nc4ccc(N)cc4)c3)nn2)[C@]2(C)[C@H](C)CC[C@]3(CCC(=O)[C@H]32)[C@@H](C)[C@@H]1O	0.12 µg/mL (≈ 0.187 µM)				
C=C[C@]1(C)C[C@@H](OC(=O)Cn2cc(-c3ccc(Cn4cncc4CO)nc3)nn2)[C@]2(C)[C@H](C)CC[C@]3(CCC(=O)[C@H]32)[C@@H](C)[C@@H]1O	2 µg/mL (≈ 3.24 µM)				
C=C[C@]1(C)C[C@@H](OC(=O)Cn2cc(-c3ccc(Cn4ccc5c(N)ncnc54)cc3)nn2)[C@]2(C)[C@H](C)CC[C@]3(CCC(=O)[C@H]32)[C@@H](C)[C@@H]1O	0.06 µg/mL (≈ 0.0921 µM)				
C=C[C@]1(C)C[C@@H](OC(=O)Cn2cc(-c3ccc(C(O)c4ccc5c(N)ncnn45)cc3)nn2)[C@]2(C)[C@H](C)CC[C@]3(CCC(=O)[C@H]32)[C@@H](C)[C@@H]1O (stereo not given in full)	0.06 µg/mL (≈ 0.0898 µM)				
C=C[C@]1(C)C[C@@H](OC(=O)Cn2cc(-c3ccc(Cn4cnc5c(=O)[nH]c(N)nc54)cc3)nn2)[C@]2(C)[C@H](C)CC[C@]3(CCC(=O)[C@H]32)[C@@H](C)[C@@H]1O	2 µg/mL (≈ 2.99 µM)				
C=C[C@]1(C)C[C@@H](OC(=O)Cn2cc(-c3ccnc(NC(=O)c4cnc(OC)cn4)c3)nn2)[C@]2(C)[C@H](C)CC[C@]3(CCC(=O)[C@H]32)[C@@H](C)[C@@H]1O	0.25 µg/mL (≈ 0.38 µM)				
C=C[C@]1(C)C[C@@H](OC(=O)Cn2cc(-c3cncc(C(=O)Nc4ccc(OC)cc4)c3)nn2)[C@]2(C)[C@H](C)CC[C@]3(CCC(=O)[C@H]32)[C@@H](C)[C@@H]1O	0.12 µg/mL (≈ 0.183 µM)				
C=C[C@]1(C)C[C@@H](OC(=O)Cn2cc(-c3ccc(Cn4cc(C)c(=O)[nH]c4=O)nc3)nn2)[C@]2(C)[C@H](C)CC[C@]3(CCC(=O)[C@H]32)[C@@H](C)[C@@H]1O	0.12 µg/mL (≈ 0.186 µM)				
C=C[C@]1(C)C[C@@H](OC(=O)Cn2cc(-c3ccc(NC(=O)c4ccccc4)cc3)nn2)[C@]2(C)[C@H](C)CC[C@]3(CCC(=O)[C@H]32)[C@@H](C)[C@@H]1O	4 µg/mL (≈ 6.4 µM)				
C=C[C@]1(C)C[C@@H](OC(=O)Cn2cc(-c3cccc(NC(=O)c4ccccc4)c3)nn2)[C@]2(C)[C@H](C)CC[C@]3(CCC(=O)[C@H]32)[C@@H](C)[C@@H]1O	0.25 µg/mL (≈ 0.4 µM)				
C=C[C@]1(C)C[C@@H](OC(=O)Cn2cc(-c3cncc(C(=O)Nc4ncnc5[nH]cnc45)c3)nn2)[C@]2(C)[C@H](C)CC[C@]3(CCC(=O)[C@H]32)[C@@H](C)[C@@H]1O	0.06 µg/mL (≈ 0.0899 µM)	246 L/h/kg	1.3 min	104 L/h/kg	3.6 min
C=C[C@]1(C)C[C@@H](OC(=O)Cn2cc(-c3ccc(Cn4ccnc4)cc3)nn2)[C@]2(C)[C@H](C)CC[C@]3(CCC(=O)[C@H]32)[C@@H](C)[C@@H]1O	0.25 µg/mL (≈ 0.427 µM)				

Structure (SMILES)	MIC [1]	CLint scaled at 1 µM [2]	half-life at 1 µM [3]	CLint scaled at 1 µM [4]	half-life at 1 µM [5]
C=C[C@]1(C)C[C@@H](OC(=O)Cn2cc(-c3ccc(C(O)c4ccc5c(N)ncnn45)cn3)nn2)[C@]2(C)[C@H](C)CC[C@]3(CCC(=O)[C@H]32)[C@@H](C)[C@@H]1O (stereo not given in full)	0.03 µg/mL (≈ 0.0449 µM)	500 L/h/kg	0.66 min	275 L/h/kg	1.4 min
C=C[C@]1(C)C[C@@H](OC(=O)Cn2cc(-c3ccc(Cn4ccnc4N)cc3)nn2)[C@]2(C)[C@H](C)CC[C@]3(CCC(=O)[C@H]32)[C@@H](C)[C@@H]1O	0.5 µg/mL (≈ 0.832 µM)				
C=C[C@]1(C)C[C@@H](OC(=O)Cn2cc(-c3ccc(Cn4cnc5c(=O)[nH]cnc54)cc3)nn2)[C@]2(C)[C@H](C)CC[C@]3(CCC(=O)[C@H]32)[C@@H](C)[C@@H]1O	0.06 µg/mL (≈ 0.0918 µM)				
C=C[C@]1(C)C[C@@H](OC(=O)Cn2cc(-c3ccc(Cn4ccc5c(N)ncnc54)c(O)c3)nn2)[C@]2(C)[C@H](C)CC[C@]3(CCC(=O)[C@H]32)[C@@H](C)[C@@H]1O	0.06 µg/mL (≈ 0.0898 µM)				
C=C[C@]1(C)C[C@@H](OC(=O)Cn2cc(-c3ccc(Cn4ccnc4)nc3)nn2)[C@]2(C)[C@H](C)CC[C@]3(CCC(=O)[C@H]32)[C@@H](C)[C@@H]1O	1 µg/mL (≈ 1.7 µM)	140 L/h/kg	2.4 min	60.3 L/h/kg	6.2 min
C=C[C@]1(C)C[C@@H](OC(=O)Cn2cc(-c3ccc(Cn4ccc5c(N)ncnc54)c(OC)c3)nn2)[C@]2(C)[C@H](C)CC[C@]3(CCC(=O)[C@H]32)[C@@H](C)[C@@H]1O	0.12 µg/mL (≈ 0.176 µM)	486 L/h/kg	0.68 min	310 L/h/kg	1.2 min
C=C[C@]1(C)C[C@@H](OC(=O)Cn2cc(-c3ccc(C(O)c4ccc5c(N)ncnn45)nc3)nn2)[C@]2(C)[C@H](C)CC[C@]3(CCC(=O)[C@H]32)[C@@H](C)[C@@H]1O (stereo not given in full)	0.03 µg/mL (≈ 0.0449 µM)	447 L/h/kg	0.74 min	284 L/h/kg	1.3 min
C=C[C@]1(C)C[C@@H](OC(=O)Cn2cc(-c3ccc(Cn4ccc(=O)[nH]c4=O)cc3)nn2)[C@]2(C)[C@H](C)CC[C@]3(CCC(=O)[C@H]32)[C@@H](C)[C@@H]1O	0.12 µg/mL (≈ 0.191 µM)				
O=C(O)Cc1ccccc1Nc1c(Cl)cccc1Cl [DICLOFENAC]		16.3 L/h/kg	20.2 min		
C=C[C@]1(C)C[C@@H](OC(=O)Cn2cc(-c3cccc(C(=O)Nc4ncnc5[nH]cnc45)c3)nn2)[C@]2(C)[C@H](C)CC[C@]3(CCC(=O)[C@H]32)[C@@H](C)[C@@H]1O	0.12 µg/mL (≈ 0.18 µM)	276 L/h/kg	1.2 min	140 L/h/kg	2.7 min
C=C[C@]1(C)C[C@@H](OC(=O)Cn2cc(-c3ccc(Nc4ncnc5[nH]cnc45)cc3)nn2)[C@]2(C)[C@H](C)CC[C@]3(CCC(=O)[C@H]32)[C@@H](C)[C@@H]1O	0.12 µg/mL (≈ 0.188 µM)	187 L/h/kg	1.76 min	17.8 L/h/kg	23.4 min
C=C[C@]1(C)C[C@@H](OC(=O)Cn2cc(-c3cccc(Oc4nc(N)nc5[nH]cnc45)c3)nn2)[C@]2(C)[C@H](C)CC[C@]3(CCC(=O)[C@H]32)[C@@H](C)[C@@H]1O	0.12 µg/mL (≈ 0.183 µM)				
C=C[C@]1(C)C[C@@H](OC(=O)Cn2cc(-c3ccc(Cn4cnc5c(=O)[nH]c(N)nc54)nc3)nn2)[C@]2(C)[C@H](C)CC[C@]3(CCC(=O)[C@H]32)[C@@H](C)[C@@H]1O	8 µg/mL (≈ 11.9 µM)				
C=C[C@]1(C)C[C@@H](OC(=O)Cn2cc(-c3cncc(NC(=O)c4c[nH]c(=O)cn4)c3)nn2)[C@]2(C)[C@H](C)CC[C@]3(CCC(=O)[C@H]32)[C@@H](C)[C@@H]1O	1 µg/mL (≈ 1.55 µM)				
C=C[C@]1(C)C[C@@H](OC(=O)Cn2cc(-c3cncc(C(O)c4ccc5c(N)ncnn45)c3)nn2)[C@]2(C)[C@H](C)CC[C@]3(CCC(=O)[C@H]32)[C@@H](C)[C@@H]1O (stereo not given in full)	0.25 µg/mL (≈ 0.374 µM)	131 L/h/kg	2.5 min	68.8 L/h/kg	5.4 min
C=C[C@]1(C)C[C@@H](OC(=O)Cn2cc(-c3cncc(C(=O)Nc4ccccn4)c3)nn2)[C@]2(C)[C@H](C)CC[C@]3(CCC(=O)[C@H]32)[C@@H](C)[C@@H]1O	0.06 µg/mL (≈ 0.0957 µM)				
C=C[C@]1(C)C[C@@H](OC(=O)Cn2cc(-c3cncc(NC(=O)c4ccc(OC)nc4)c3)nn2)[C@]2(C)[C@H](C)CC[C@]3(CCC(=O)[C@H]32)[C@@H](C)[C@@H]1O	0.12 µg/mL (≈ 0.183 µM)	574 L/h/kg	0.57 min	154 L/h/kg	2.4 min
C=C[C@]1(C)C[C@@H](OC(=O)Cn2cc(-c3cccc(Oc4ncnc5[nH]cnc45)c3)nn2)[C@]2(C)[C@H](C)CC[C@]3(CCC(=O)[C@H]32)[C@@H](C)[C@@H]1O	0.12 µg/mL (≈ 0.188 µM)				
C=C[C@]1(C)C[C@@H](OC(=O)Cn2cc(-c3cncc(NC(=O)c4ccc(OC)cc4)c3)nn2)[C@]2(C)[C@H](C)CC[C@]3(CCC(=O)[C@H]32)[C@@H](C)[C@@H]1O	0.06 µg/mL (≈ 0.0915 µM)	591 L/h/kg	0.56 min	219 L/h/kg	1.7 min
